Consider 19 compounds from patent US9616037B2, “Aryl-phenyl-sulfonamido-cycloalkyl compounds and their use” (PIMCO 2664 Limited, priority 2008, dated 2017).

Values after ≈ are worked out from the molar mass of the structure shown. Where two headings read alike, the source gives them in different places.

The nature of data set [1]: Human liver microsomal stability assay. It counts as in vitro ADME. The following applies: pooled human liver microsomes 0.5 mg/mL, 3 μM compound, NADPH, 45 minute incubation; for half-life at 3 µM: both sexes, pH 7.4. On the procedure:
(§1) Initial screening of candidate compounds was performed using in vitro assays to determine potency, metabolic stability and solubility in biologically relevant fluids. Potency was assessed using a viability assay based on the survival of the J774 macrophage cell line. […] Like osteoclasts, J774 macrophages are dependent on continued NFκB activation for survival, thereby providing a valuable screen for compounds with anti-inflammatory activity. Metabolic stability was measured by determining the rate of disappearance of compound in the presence of human liver microsomal preparations, as quantified by LC-MS/MS. Solubility was measured by equilibration of the compound in fasted state simulated intestinal fluid (FaSSIF) and quantified by HPLC.
Metabolic stability of APSAC derivatives was measured by determination of the rate of compound disappearance when incubated in the presence of human liver microsomes. Liver microsomes are prepared from the endoplasmic reticulum of hepatocytes and are the primary source of the most important enzymes (cytochrome P450) involved in drug metabolism. Study of drug stability in the presence of liver microsomes is accepted as a valuable model permitting rapid prediction of in vivo drug stability.
Human liver microsomes were obtained from a commercial source. Test compounds (3 μM) were incubated with pooled liver microsomes (male and female). Samples were incubated for a 45 minute period and removed at 5 time points and test compounds were analysed by LC-MS/MS.
The final incubation volume was 25 μL. A control incubation was included for each compound tested, where 0.1 M phosphate buffer pH 7.4 was added instead of NADPH. The control compounds testosterone and 7-hydroxycoumarin were included in each experiment and all incubations were performed singularly for each compound.
Each compound was incubated for 0, 5, 15, 30, and 45 minutes. The control (minus NADPH) was incubated for 45 minutes only. […] The incubation plates were centrifuged at 2500 rpm for 20 minutes at 4° C. to precipitate the protein.
Following protein precipitation, the sample supernatants were combined in cassettes of up to 4 compounds and analysed using standard LC-MS/MS conditions.
From a plot of the natural logarithm of the peak area ratio (i.e., the ratio of compound peak area:internal standard peak area) against time, the gradient of the line was determined. Subsequently, half-life and intrinsic clearance were calculated using the equations below: Eliminated rate constant (k)=(−gradient). […] Pharmacokinetics Studies

Data set [2] in a line: Thermodynamic aqueous solubility in fasted state simulated intestinal fluid (FaSSIF). To be noted: equilibrated at 25° C. for 24 hours, HPLC; for solubility at 24 h: pH 6.5, thermodynamic from solid. It counts as physicochemical. On the procedure:
as §1
Thermodynamic aqueous solubility was measured by equilibration of a number of APSAC compounds, in the solid state, with fasted state simulated intestinal fluid (FaSSIF) and quantified by HPLC. Measurement of solubility in FaSSIF provides a valuable model for the prediction of drug dissolution following oral administration.
The pH was adjusted to 6.5 using 1 M NaOH solution.
0.6 mL of a solution containing 100 mg/mL lecithin in methylene chloride was added. The methylene chloride was eliminated under vacuum at about 40° C. The vacuum was drawn for 15 minutes at 250 mbar, followed by 15 minutes at 100 mbar. […] After cooling to room temperature, the solution was then adjusted to 100 mL with blank FaSSIF.
The suspension was equilibrated at 25° C. for 24 hours, and then the pH was measured. The suspension was then filtered through a glass fibre C filter into a 96-well plate. The filtrate was then diluted by a factor of 100. Quantification was made by HPLC with reference to a standard solution of compound at approximately 0.1 mg/mL in DMSO. Different volumes of the standard, diluted and undiluted sample solutions were injected. […] Analysis was performed on an Agilent HP1100 series system equipped with a diode array detector and using ChemStation software vB.02.01-SR1.

The next data set concerns J774 macrophages. As to the kind of experiment: Alamar Blue macrophage J774 viability assay. Type of data set: cell-based. The following applies: J774 cells, 72 hours with compound, Alamar Blue readout. On the procedure:
Initial screening of candidate compounds was performed using in vitro assays to determine potency, metabolic stability and solubility in biologically relevant fluids. Potency was assessed using a viability assay based on the survival of the J774 macrophage cell line. Macrophages are closely related to osteoclasts and have been used previously as a model system for osteoclast survival (see, e.g., Luckman et al., 1998). Like osteoclasts, J774 macrophages are dependent on continued NFκB activation for survival, thereby providing a valuable screen for compounds with anti-inflammatory activity. Metabolic stability was measured by determining the rate of disappearance of compound in the presence of human liver microsomal preparations, as quantified by LC-MS/MS. Solubility was measured by equilibration of the compound in fasted state simulated intestinal fluid (FaSSIF) and quantified by HPLC.
In vitro potency as anti-inflammatory agents was determined for a number of APSAC compounds by incubation with J774 macrophages and subsequent determination of cell viability.
J774 cells were plated at 10^4 cells per well in 100 μL αMEM (α Modified Eagle Medium) in 96-well plates and grown overnight. The next day, test compounds were added to the cultures, and cultures were continued for another 72 hours. At the end of the culture period, cell survival was determined using an Alamar Blue assay as previously described (see, e.g., Nociari et al., 1998).
Alamar Blue is an oxidation-reduction sensitive indicator. The dye itself is in the oxidised state, which is blue and non-fluorescent. The dye can accept electrons from reducing species, such as NADPH and FADH, to form a reduced dye species, which is red and fluorescent. Thus the transformation from oxidised form to reduced form can be measured by fluorimetric or colourimetric means. For fluorescence measurements, 530-560 nm excitation and 590 nm emission wavelengths are typically used. For colourimetric measurements, absorbance at 570 nm (reduced form) and 600 nm (oxidised form) is typically measured. A simple calculation is performed to determine the relative quantities of the two species.
A high ratio of the reducing species, NADPH and FADH, to the corresponding oxidised species, NADP and FAD, is an indicator that cells are proliferating and viable. A low ratio indicates cells that are quiescent or non-viable.
Briefly, Alamar Blue (Biosource International) was added undiluted to the each well (1:10 v/v, 10 μL). The plate was incubated at 37° C. for 3-4 hours and the fluorescence was measured at 590 nm, with a 25 nm bandwidth. A high reading indicated cells with normal viability, and a low reading indicated cells that have been damaged and are no longer proliferating normally. The controls gave a high fluorescence reading, indicating a high number of live, healthy cells. A potent test compound gave a low fluorescence reading. The average results for each test compound (n=5) were expressed as a percent (%) of the average control value.
Addition of Compounds. All of the compounds studied were made up as 100 mM solutions in DMSO. These stock solutions were then diluted 1000-10000× in culture medium (αMEM). From these 100 μM or 10 μM solutions, convenient quantities (3-33 μL) were added directly to the wells so as to give the desired final compound concentration.

As for `O=S(=O)(N[C@@H]1CCC[C@@H]1CO)c1ccc(-c2ccc(F)cc2F)cc1` (relative stereo) [ABD769, 2′,4′-Difluoro-N-(cis-2-(hydroxymethyl)cyclopentyl)biphenyl-4-sulfonamide], the half-life at 3 µM in data set [1] was found to be 42 min. This compound returned a solubility at 24 h in data set [2] of 70 µg/mL (≈ 191 µM). Further, the IC50 in the data set on J774 macrophages (Mus musculus, read-out: IC50) is 4590 nM.

Compound `O=S(=O)(Nc1cccc(CO)c1)c1ccc(-c2ccc(F)cc2F)cc1` [ABD456, 2′,4′-difluoro-biphenyl-4-sulfonic acid (3-hydroxymethyl-phenyl)-amide, reference compound] returned a Solubility in data set [2] of 40 µg/mL (≈ 107 µM). Moreover, in the data set on J774 macrophages (Mus musculus, read-out: IC50), the IC50 turned out to be 250 nM.

In data set [2], `O=S(=O)(Nc1cccc(CO)c1)c1ccc(-c2ccc(Cl)cc2F)cc1` [ABD575, reference compound] showed a Solubility of 70 µg/mL (≈ 179 µM). The IC50 in the data set with J774 macrophages (read-out: IC50) was 400 nM.

`O=S(=O)(N[C@H]1CC[C@H](O)CC1)c1ccc(-c2ccc(Cl)cc2F)cc1` [ABD655, 4′-Chloro,2′-fluoro-N-(trans-4-hydroxycyclohexyl)biphenyl-4-sulfonamide] registered a half-life at 3 µM in data set [1] of 228 min. The compound further displayed a solubility at 24 h in data set [2] of 30 µg/mL (≈ 78.2 µM). Further, in the data set on J774 macrophages (Mus musculus, read-out: IC50), the IC50 worked out at 180 nM.

Compound `O=S(=O)(NC1CCC(CO)CC1)c1ccc(-c2ccc(F)cc2F)cc1` (stereo not drawn) [ABD776, 2′,4′-Difluoro-N-(4-(trans-hydroxymethyl)cyclohexyl)biphenyl-4-sulfonamide] gave a half-life at 3 µM in data set [1] of 137 min. Also, the concentration in solution in data set [2] (solubility at 24 h) came to 82 µg/mL (≈ 215 µM). Further, the IC50 in the data set with J774 macrophages (Mus musculus, read-out: IC50) turned out to be 800 nM.

`O=S(=O)(N[C@H]1CC[C@@H](O)CC1)c1ccc(-c2ccc(F)cc2F)cc1` [ABD777, 2′,4′-Difluoro-N-(cis-4-hydroxycyclohexyl)biphenyl-4-sulfonamide]: the half-life at 3 µM in data set [1] is 69 min. For the same compound, the solubility at 24 h in data set [2] was 60 µg/mL (≈ 163 µM). The 50% inhibitory concentration (IC50) in the data set on J774 macrophages (Mus musculus, read-out: IC50) was 1900 nM.

The compound `O=C1CCC(NS(=O)(=O)c2ccc(-c3ccc(F)cc3F)cc2)CC1` [ABD786, 2′,4′-Difluoro-N-(4-oxocyclohexyl)biphenyl-4-sulfonamide] had a half-life at 3 µM in data set [1] of 12 min. Also, the solubility at 24 h in data set [2] is 32 µg/mL (≈ 87.6 µM). Further, the IC50 with J774 macrophages (Mus musculus, read-out: IC50) was 280 nM.

Take `NC1CCC(NS(=O)(=O)c2ccc(-c3ccc(F)cc3F)cc2)CC1` (stereo not shown) [ABD787]: the T1/2 result in data set [1] was “Stable”. In addition, the concentration in solution in data set [2] (solubility at 24 h) came to 140 µg/mL (≈ 382 µM). For the same compound, the IC50 in the data set with J774 macrophages (Mus musculus, read-out: IC50) worked out at 3550 nM.

With `CC(C)(O)[C@H]1CC[C@H](NS(=O)(=O)c2ccc(-c3ccc(F)cc3F)cc2)CC1` [ABD794, 2′,4′-Difluoro-N-(trans-4-(2-hydroxypropan-2-yl)cyclohexyl)biphenyl-4-sulfonamide], in data set [1], the T1/2 result is recorded as “Stable”. In data set [2], this compound gave a solubility at 24 h of 12 µg/mL (≈ 29.3 µM). Further, the half-inhibitory concentration (IC50) in the data set with J774 macrophages (Mus musculus, read-out: IC50) was 2100 nM.

`CC(C)(O)[C@H]1CC[C@@H](NS(=O)(=O)c2ccc(-c3ccc(F)cc3F)cc2)CC1` [ABD795, 2′,4′-Difluoro-N-(cis-4-(2-hydroxypropan-2-yl)cyclohexyl)biphenyl-4-sulfonamide]: the half-life at 3 µM in data set [1] was found to be 15 min. The compound also yielded a solubility at 24 h in data set [2] of 50 µg/mL (≈ 122 µM). The IC50 in the data set with J774 macrophages (Mus musculus, read-out: IC50) was determined as 2700 nM.

In turn, `CC(C)(O)[C@@H]1CC[C@H](NS(=O)(=O)c2ccc(-c3ccc(F)cc3F)cc2)C1` [ABD796, 2′,4′-Difluoro-N-((1S,3R)-3-(2-hydroxypropan-2-yl)cyclopentyl)biphenyl-4-sulfonamide] showed a half-life at 3 µM in data set [1] of 54 min. This compound also had a solubility at 24 h in data set [2] of 200 µg/mL (≈ 506 µM). Further, the IC50 in the data set on J774 macrophages (Mus musculus, read-out: IC50) was less than 300 nM.

On to `CN(C)[C@H]1CC[C@@H](NS(=O)(=O)c2ccc(-c3ccc(F)cc3F)cc2)CC1` [ABD798, N-(cis-4-(Dimethylamino)cyclohexyl)-2′,4′-difluorobiphenyl-4-sulfonamide], for which, in data set [1], the T1/2 result was “Stable”. Moreover, the concentration in solution in data set [2] (solubility at 24 h) came to 4700 µg/mL (≈ 11900 µM). The IC50 in the data set with J774 macrophages (Mus musculus, read-out: IC50) was 600 nM.

Turning to `CN(C)[C@H]1CC[C@H](NS(=O)(=O)c2ccc(-c3ccc(F)cc3F)cc2)CC1` [ABD799, N-(trans-4-(Dimethylamino)cyclohexyl)-2′,4′-difluorobiphenyl-4-sulfonamide], in data set [1], the T1/2 entry is “Stable”. In addition, the solubility at 24 h in data set [2] is 7200 µg/mL (≈ 18300 µM). In the data set on J774 macrophages (Mus musculus, read-out: IC50), the IC50 was 400 nM.

Consider `CN(C)C[C@H]1CC[C@@H](NS(=O)(=O)c2ccc(-c3ccc(F)cc3F)cc2)CC1` [ABD826, N-(cis-4-((Dimethylamino)methyl)cyclohexyl)-2′,4′-difluorobiphenyl-4-sulfonamide], for which the IC50 with J774 macrophages (Mus musculus, read-out: IC50) is 1000 nM.

Regarding `O=S(=O)(N[C@H]1CC[C@H](O)CC1)c1ccc(-c2ncc(Cl)cc2Cl)cc1` [ABD836, 4-(3,5-Dichloropyridin-2-yl)-N-(trans-4-hydroxycyclohexyl) benzene sulfonamide], the IC50 in the data set with J774 macrophages (Mus musculus, read-out: IC50) came to 280 nM.

As to `O=S(=O)(N[C@H]1CC[C@H](O)CC1)c1ccc(-c2ncc(Cl)cn2)cc1` [ABD837, 4-(5-Chloropyrimidin-2-yl)-N-(trans-4-hydroxycyclohexyl)benzenesulfonamide], the IC50 in the data set with J774 macrophages (Mus musculus, read-out: IC50) was 8880 nM.

For `O=S(=O)(N[C@H]1CC[C@H](O)CC1)c1ccc(-c2cncnc2)cc1` [ABD861, N-(trans-4-Hydroxycyclohexyl)-4-(pyrimidin-5-yl)benzenesulfonamide], in the data set on J774 macrophages, the IC50 result is on record as “Inactive”.

Consider `O=S(=O)(N[C@H]1CC[C@@H](NCC(F)(F)F)CC1)c1ccc(-c2ccc(F)cc2F)cc1` [ABD864, 2′,4′-Difluoro-N-(cis-4-(2,2,2-trifluoroethylamino)cyclohexyl)biphenyl-4-sulfonamide], for which, in the data set on J774 macrophages (Mus musculus, read-out: IC50), the IC50 is more than 10000 nM.

As for `O=S(=O)(N[C@H]1CC[C@H](NCC(F)(F)F)CC1)c1ccc(-c2ccc(F)cc2F)cc1` [ABD865, 2′,4′-Difluoro-N-(trans-4-(2,2,2-trifluoroethylamino)cyclohexyl)biphenyl-4-sulfonamide], in the data set on J774 macrophages (Mus musculus, read-out: IC50), the concentration for half-maximal inhibition (IC50) was determined as 5900 nM.
